Each structure is given as a SMILES string.

In this test the target is Estrogen receptor (Ovis aries, UniProt P49885+Q9TU15). Kind of test: Displacement of [3H]-estradiol (E2) from sheep uterine estrogen receptor. For orientation: Loss of bound radioactivity is the signal in a displacement assay; it reports binding, not function.
In turn, `Brc1ccccc1-c1ccccc1Br` registered a Kd of 0.00016 M l-1.
`CC(=O)C1CCC2C3CCC4=CC(O)CCC4(C)C3CCC12C` (stereo not given): the Kd is given as more than 0.0003 M l-1.
In turn, `CCC1Cc2cc(O)ccc2C2=C1c1ccc(O)cc1CC2CC` (stereo not given) displayed a Kd of 3e-9 M l-1.
Regarding `Oc1ccc2c(cc3ccc4cccc5ccc2c3c45)c1O`, the Kd is given as 0.000014 M l-1.
In turn, `Oc1ccc2c(ccc3c4ccccc4ccc23)c1O` had a Kd of 8.8e-7 M l-1.
For the molecule `Oc1ccc2ccc3c4ccccc4ccc3c2c1`, the Kd turned out to be 4e-6 M l-1.
`Oc1ccc2ccc3c4ccccc4cc4ccc1c2c43` yielded a Kd of 1.1e-6 M l-1.
Molecule `Brc1ccc(-c2ccc(Br)cc2)cc1` displayed a Kd of more than 0.0003 M l-1.
The molecule `Oc1ccc(C2COc3cc(O)c(O)cc3C2)cc1` (stereo not given) came in with a Kd of 0.000011 M l-1.
`O=c1c(-c2ccc(O)cc2)coc2cc(O)ccc12` [DAIDZEIN] registered a Kd of 5.9e-6 M l-1.
